≈ marks a conversion by molar mass, not a printed value. Where two headings read alike, the source gives them in different places.
Tests used:
[1] = test system: Candida albicans IAM4888; assay: Serial agar dilution MIC, Sabouraud dextrose agar; type: cell-based; conditions: pH 7.0, 40 hours at 28° C.
Method: (§1) Antifungal activities of representative compounds of the present invention were evaluated both in vitro and in vivo. The minimum inhibitory concentrations (MICs) against various fungi were determined by serial agar dilution method using Sabouraud dextrose agar. Thus, approximately 0.003 ml of fungal suspension containing 10^6 cells/ml was applied to the surface of agar plates containing the test antibiotics.

[2] = test system: Blastomyces dermatitidis D40; assay: Serial agar dilution MIC, Sabouraud dextrose agar; type: cell-based; conditions: pH 7.0, 40 hours at 28° C.
Method: as §1

[3] = test system: Mucor spinosus IFO5317; assay: Serial agar dilution MIC, Sabouraud dextrose agar; type: cell-based; conditions: pH 7.0, 40 hours at 28° C.
Method: as §1

[4] = test system: Petriellidium boydii IFO8073; assay: Serial agar dilution MIC, Sabouraud dextrose agar; type: cell-based; conditions: Scedosporium boydii, pH 7.0, 40 hours at 28° C.
Method: as §1

[5] = test system: A. fumigatus IAM2034; assay: Serial agar dilution MIC, Sabouraud dextrose agar; type: cell-based; conditions: Aspergillus fumigatus, pH 7.0, 40 hours at 28° C.
Method: as §1

[6] = test system: Cryptococcus neoformans D49; assay: Serial agar dilution MIC, Sabouraud dextrose agar; type: cell-based; conditions: pH 7.0, 40 hours at 28° C.
Method: as §1

[7] = test system: A. flavus FA21436; assay: Serial agar dilution MIC, Sabouraud dextrose agar; type: cell-based; conditions: Aspergillus flavus, pH 7.0, 40 hours at 28° C.
Method: as §1

[8] = test system: Trichophyton mentagrophytes D155; assay: Serial agar dilution MIC, Sabouraud dextrose agar; type: cell-based; conditions: pH 7.0, 40 hours at 28° C.
Method: as §1

[9] = test system: Aspergillus fumigatus IAM2530; assay: Serial agar dilution MIC, Sabouraud dextrose agar; type: cell-based; conditions: pH 7.0, 40 hours at 28° C.
Method: as §1

[10] = test system: T. mentagrophytes #4329; assay: Serial agar dilution MIC, Sabouraud dextrose agar; type: cell-based; conditions: Trichophyton mentagrophytes, pH 7.0, 40 hours at 28° C.
Method: as §1

[11] = test system: C. albicans A9540; assay: Serial agar dilution MIC, Sabouraud dextrose agar; type: cell-based; conditions: Candida albicans, pH 7.0, 40 hours at 28° C.
Method: as §1

[12] = test system: C. neoformans IAM4514; assay: Serial agar dilution MIC, Sabouraud dextrose agar; type: cell-based; conditions: Cryptococcus neoformans, pH 7.0, 40 hours at 28° C.
Method: as §1

[13] = test system: Sporothrix schenckii IFO8158; assay: Serial agar dilution MIC, Sabouraud dextrose agar; type: cell-based; conditions: pH 7.0, 40 hours at 28° C.
Method: as §1

[14] = test system: Fusarium moniliforme A2284; assay: Serial agar dilution MIC, Sabouraud dextrose agar; type: cell-based; conditions: Fusarium verticillioides, pH 7.0, 40 hours at 28° C.
Method: as §1

[15] = test system: C. albicans A9540; assay: In vivo antifungal activity, intravenous infection in mice; set-up: species or system Male ICR mice; conditions: Candida albicans, 480 h, survival on 20th day, read-out: PD50 (50% protective dose)
Method: (§2) In vivo antifungal activities were evaluated against intravenous infections with Candida albicans A9540, Cryptococcus neoformans IAM4514 and Aspergillus fumigatus IAM2034 in mice. Candida albicans and Cryptococcus neoformans were cultured for 18 and 48 hours, respectively, at 28° C. in YGP medium [yeast extract(0.2%), glucose(1.5%), peptone(0.5%), K2 HPO4 (0.05%) and MgSO4 (0.05%)] and suspended in saline. Aspergillus fumigatus was cultured for 7 days at 28° C. on YGP agar slant and suspended in saline. Spores were collected by filtering fungal suspension through gauze. Male ICR mice weighing 20 to 24 g were infected intravenously with about 10 times the median lethal dose of the fungi.
(§3) Test compounds were administered at various doses to groups of 5 mice each intravenously either once just after fungal challenge (day 0) or once daily for 5 days from day 0 to day 4 (qd×5). The 50% protective dose (PD50) was calculated from survival rates recorded on the 20th day after fungal challenge. All control animals died within 7 to 15 days after fungal infection.

[16] = test system: calcium ion and calmodulin-dependent cyclic nucleotide phosphodiesterase; conditions: background statement; cited from earlier work
[17] = test system: A. fumigatus IAM2034; assay: In vivo antifungal activity, intravenous infection in mice; set-up: species or system Male ICR mice; conditions: Aspergillus fumigatus, 480 h, survival on 20th day, read-out: PD50 (50% protective dose)
Method: as §2, §3

[18] = test system: C. neoformans IAM4514; assay: as above; set-up: species or system Male ICR mice; conditions: Cryptococcus neoformans, 480 h, survival on 20th day, read-out: PD50 (50% protective dose)
Method: as §2, §3

[19] = test system: mice; assay: Acute toxicity (LD50) in mice, single intravenous dose; type: in vivo; conditions: at 600 mg/kg, the highest dose tested
Method: The LD50 for N,N-dimethyl BU-3608 FA-2 was determined in mice after a single intravenous dose.

[20] = single dose just after challenge

Structure (SMILES)	MIC [1] [µg/mL]	MIC [2] [µg/mL]	MIC [3] [µg/mL]	MIC [4] [µg/mL]	MIC [5] [µg/mL]	MIC [6] [µg/mL]	MIC [7] [µg/mL]	MIC [8] [µg/mL]	MIC [9] [µg/mL]	MIC [10] [µg/mL]	MIC [11] [µg/mL]	MIC [12] [µg/mL]	MIC [13] [µg/mL]	MIC [14] [µg/mL]	ED50 [15, 20] [mg/kg]	also measured
CN[C@@H]1[C@H](O[C@@H]2OC[C@@H](O)[C@H](O)[C@H]2O)[C@@H](O)[C@H](O[C@H]2c3cc(C)c(C(=O)N[C@H](CO)C(=O)O)c(O)c3-c3c(cc4c(c3O)C(=O)c3cc(OC)cc(O)c3C4=O)[C@@H]2O)O[C@@H]1C [BU-3608 FA-1]	6.3 (≈ 7.35 µM)	3.1 (≈ 3.62 µM)	> 100	12.5 (≈ 14.6 µM)	6.3 (≈ 7.35 µM)	0.8 (≈ 0.934 µM)	6.3 (≈ 7.35 µM)	6.3 (≈ 7.35 µM)	3.1 (≈ 3.62 µM)	6.3 (≈ 7.35 µM)	12.5 (≈ 14.6 µM)	0.8 (≈ 0.934 µM)	1.6 (≈ 1.87 µM)	6.3 (≈ 7.35 µM)	18	–
COc1cc(O)c2c(c1)C(=O)c1c(cc3c(c1O)-c1c(cc(C)c(C(=O)N[C@H](CO)C(=O)O)c1O)[C@H](O[C@@H]1O[C@H](C)[C@H](N)[C@H](O[C@@H]4OC[C@@H](O)[C@H](O)[C@H]4O)[C@H]1O)[C@H]3O)C2=O [BU-3608 FA-2]	6.3 (≈ 7.48 µM)	3.1 (≈ 3.68 µM)	> 100	25 (≈ 29.7 µM)	6.3 (≈ 7.48 µM)	0.8 (≈ 0.949 µM)	6.3 (≈ 7.48 µM)	6.3 (≈ 7.48 µM)	3.1 (≈ 3.68 µM)	6.3 (≈ 7.48 µM)	6.3 (≈ 7.48 µM)	0.8 (≈ 0.949 µM)	1.6 (≈ 1.9 µM)	6.3 (≈ 7.48 µM)	7.4	–
CN[C@@H]1[C@H](O)[C@@H](O)[C@H](O[C@H]2c3cc(C)c(C(=O)N[C@H](CO)C(=O)O)c(O)c3-c3c(cc4c(c3O)C(=O)c3cc(OC)cc(O)c3C4=O)[C@@H]2O)O[C@@H]1C [Des-xylosyl BU-3608 FA-1]	3.1 (≈ 4.28 µM)	6.3 (≈ 8.69 µM)	12.5 (≈ 17.2 µM)	> 100	6.3 (≈ 8.69 µM)	1.6 (≈ 2.21 µM)	50 (≈ 69 µM)	12.5 (≈ 17.2 µM)	6.3 (≈ 8.69 µM)	12.5 (≈ 17.2 µM)	3.1 (≈ 4.28 µM)	1.6 (≈ 2.21 µM)	6.3 (≈ 8.69 µM)	> 100	–	–
COc1cc(O)c2c(c1)C(=O)c1c(cc3c(c1O)-c1c(cc(C)c(C(=O)N[C@H](CO)C(=O)O)c1O)[C@H](O[C@@H]1O[C@H](C)[C@H](N)[C@H](O)[C@H]1O)[C@H]3O)C2=O [Des-xylosyl BU-3608 FA-2]	3.1 (≈ 4.36 µM)	6.3 (≈ 8.87 µM)	25 (≈ 35.2 µM)	> 100	12.5 (≈ 17.6 µM)	3.1 (≈ 4.36 µM)	50 (≈ 70.4 µM)	12.5 (≈ 17.6 µM)	12.5 (≈ 17.6 µM)	12.5 (≈ 17.6 µM)	3.1 (≈ 4.36 µM)	3.1 (≈ 4.36 µM)	6.3 (≈ 8.87 µM)	> 100	–	–
COc1cc(O)c2c(c1)C(=O)c1c(cc3c(c1O)-c1c(cc(C)c(C(=O)N[C@H](CO)C(=O)O)c1O)[C@H](O[C@@H]1O[C@H](C)[C@H](N(C)C)[C@H](O)[C@H]1O)[C@H]3O)C2=O [Des-xylosyl N,N-dimethyl BU-3608 FA-2]	6.3 (≈ 8.53 µM)	3.1 (≈ 4.2 µM)	25 (≈ 33.8 µM)	100 (≈ 135 µM)	6.3 (≈ 8.53 µM)	1.6 (≈ 2.17 µM)	12.5 (≈ 16.9 µM)	6.3 (≈ 8.53 µM)	6.3 (≈ 8.53 µM)	6.3 (≈ 8.53 µM)	6.3 (≈ 8.53 µM)	1.6 (≈ 2.17 µM)	3.1 (≈ 4.2 µM)	50 (≈ 67.7 µM)	–	–
CC(=O)Cc1cc2c(c(O)c1C(=O)O)-c1cc3c(c(O)c1CC2)C(=O)c1c(O)cc(O)cc1C3=O [KS-619-1]	–	–	–	–	–	–	–	–	–	–	–	–	–	–	–	inhibitor of calcium ion and calmodulin-dependent cyclic nucleotide phosphodiesterase [16]: inhibitor of calcium ion and calmodulin-dependentcyclic nucleotide phosphodiesterase
COc1cc(O)c2c(c1)C(=O)c1c(cc3c(c1O)-c1c(cc(C)c(C(=O)N[C@H](CO)C(=O)O)c1O)[C@H](O[C@@H]1O[C@H](C)[C@H](N(C)C)[C@H](O[C@@H]4OC[C@@H](O)[C@H](O)[C@H]4O)[C@H]1O)[C@H]3O)C2=O [N,N-dimethyl BU-3608 FA-2]	3.1 (≈ 3.56 µM)	6.3 (≈ 7.23 µM)	–	–	3.1 (≈ 3.56 µM)	0.8 (≈ 0.919 µM)	25 (≈ 28.7 µM)	12.5 (≈ 14.4 µM)	3.1 (≈ 3.56 µM)	6.3 (≈ 7.23 µM)	6.3 (≈ 7.23 µM)	0.8 (≈ 0.919 µM)	1.6 (≈ 1.84 µM)	25 (≈ 28.7 µM)	9	ED50 ([17]; qd × 5 (day 0 to day 4)): 15 mg/kg; ED50 [17, 20]: 36 mg/kg; ED50 ([15]; qd × 5 (day 0 to day 4)): 7.5 mg/kg; ED50 ([18]; qd × 5 (day 0 to day 4)): 2.8 mg/kg; ED50 [18, 20]: 11 mg/kg; LD50 determination: lethal toxicity and toxic signs [19]: neither lethal toxicity nor any significant toxic sign was observed

Reference: US4973673A, “Serine analogs of BU-3608 antibiotics” (Bristol-Myers Company, priority 1988, dated 1990)
